pIC50: −log10 of the molar value. Calls of active or inactive are those of the source. No cut-off for these calls is given here.
Tests used:
A549 [1] = assay: Induction of cell cycle arrest in human A549 cells assessed as downregulation of Rb phosphorylation at Ser807/811 residue at 10 uM incubated for 24 hrs by Western blotting analysis; format: functional, cell-based
NCI-H1703 [2] = assay: Induction of cell cycle arrest in human NCI-H1703 cells assessed as downregulation of total Rb protein level at 5 uM incubated for 24 hrs by Western blotting analysis; format: functional, cell-based
A549 [3] = assay: Induction of cell cycle arrest in human A549 cells assessed as upregulation of p21 protein expression incubated for 24 hrs by Western blotting analysis; format: functional, cell-based
Hepa 1-6 = assay: Cytotoxicity against mouse Hepa1-6 cells assessed as reduction in cell viability incubated for 48 hrs by MTT assay; format: functional, cell-based; details: Hepa1-6, 48 h
A549 [4] = assay: Antiproliferative activity against human A549 cells assessed as inhibition of cell growth incubated for 18 hrs by Edu incorporation based fluorescence microscopic analysis; format: functional
MDA-MB-231 = assay: Cytotoxicity against human MDA-MB-231 cells assessed as reduction in cell viability incubated for 48 hrs by MTT assay; format: functional, cell-based; details: MDA-MB-231, 48 h
4T1 = assay: Cytotoxicity against mouse 4T1 cells assessed as reduction in cell viability incubated for 48 hrs by MTT assay; format: functional, cell-based; details: 4T1, 48 h
NCI-H1703 [5] = assay: Cytotoxicity against human NCI-H1703 cells assessed as reduction in cell viability incubated for 48 hrs by MTT assay; format: functional, cell-based; details: NCI-H1703, 48 h
MC-38 = assay: Cytotoxicity against mouse MC38 cells assessed as reduction in cell viability incubated for 48 hrs by MTT assay; format: functional, cell-based; details: MC-38, 48 h
NCI-H1703 [6] = assay: Induction of cell cycle arrest in human NCI-H1703 cells assessed as accumulation of cells at G1/G0 phase at 5 uM incubated for 24 hrs by flow cytometric analysis (reference value: 42.06 %); format: functional
SNB-19 = assay: Cytotoxicity against human SNB-19 cells assessed as reduction in cell viability incubated for 48 hrs by MTT assay; format: functional, cell-based; details: SNB-19, 48 h
NCI-H1703 [7] = assay: Induction of cell cycle arrest in human NCI-H1703 cells assessed as downregulation of CDK4 protein expression incubated for 24 hrs by Western blotting analysis; format: functional, cell-based
A549 [8] = assay: Induction of cell cycle arrest in human A549 cells assessed as downregulation of CyclinD1 protein expression incubated for 24 hrs by Western blotting analysis; format: functional, cell-based
HCT-116 = assay: Cytotoxicity against human HCT-116 cells assessed as reduction in cell viability incubated for 48 hrs by MTT assay; format: functional, cell-based; details: HCT-116, 48 h
NCI-H1703 [9] = assay: Antiproliferative activity against human NCI-H1703 cells assessed as inhibition of cell growth incubated for 18 hrs by Edu incorporation based fluorescence microscopic analysis; format: functional
A549 [10] = assay: Induction of cell cycle arrest in human A549 cells assessed as accumulation of cells at G2/M phase at 20 uM incubated for 24 hrs by flow cytometric analysis (reference value: 17.2 %); format: functional
NCI-H1703 [11] = assay: Induction of cell cycle arrest in human NCI-H1703 cells assessed as downregulation of Rb phosphorylation at Ser807/811 residue at 10 uM incubated for 24 hrs by Western blotting analysis; format: functional, cell-based
A549 [12] = assay: Antiproliferative activity against human A549 cells assessed as inhibition of cell growth at 10 uM incubated for 24 hrs by MTT assay; format: functional, cell-based
NCI-H1703 [13] = assay: Induction of cell cycle arrest in human NCI-H1703 cells assessed as downregulation of Rb phosphorylation at Ser807/811 residue at 5 uM incubated for 24 hrs by Western blotting analysis; format: functional, cell-based
A549 [14] = assay: Antiproliferative activity against human A549 cells assessed as inhibition of cell growth at 20 uM incubated for 24 hrs by MTT assay; format: functional, cell-based
PC-3 = assay: Cytotoxicity against human PC-3 cells assessed as reduction in cell viability incubated for 48 hrs by MTT assay; format: functional, cell-based; details: PC-3, 48 h
NCI-H1703 [15] = assay: Inhibition of colony formation in human NCI-H1703 cells at 2.5 uM incubated for 7 days by crystal violet staining analysis; format: functional, cell-based; details: time 7.0 day
MDA-MB-435 = assay: Cytotoxicity against human MDA-MB-435 cells assessed as reduction in cell viability incubated for 48 hrs by MTT assay; format: functional, cell-based; details: MDA-MB-435, 48 h
A549 [16] = assay: Inhibition of colony formation in human A549 cells at 10 uM incubated for 7 days by crystal violet staining analysis; format: functional, cell-based; details: time 7.0 day
A549 [17] = assay: Inhibition of colony formation in human A549 cells at 20 uM incubated for 7 days by crystal violet staining analysis; format: functional, cell-based; details: time 7.0 day
A549 [18] = assay: Induction of cell cycle arrest in human A549 cells assessed as accumulation of cells at G1/G0 phase at 20 uM incubated for 24 hrs by flow cytometric analysis (reference value: 51.49 %); format: functional
NCI-H1703 [19] = assay: Induction of cell cycle arrest in human NCI-H1703 cells assessed as upregulation of p53 protein expression incubated for 24 hrs by Western blotting analysis; format: functional, cell-based
NCI-H1703 [20] = assay: Induction of cell cycle arrest in human NCI-H1703 cells assessed as accumulation of cells at G1/G0 phase at 10 uM incubated for 24 hrs by flow cytometric analysis (reference value: 42.06 %); format: functional
NCI-H1703 [21] = assay: Induction of cell cycle arrest in human NCI-H1703 cells assessed as upregulation of p21 protein expression incubated for 24 hrs by Western blotting analysis; format: functional, cell-based
B16-F10 = assay: Cytotoxicity against mouse B16-F10 cells assessed as reduction in cell viability incubated for 48 hrs by MTT assay; format: functional, cell-based; details: B16-F10, 48 h
NCI-H1703 [22] = assay: Induction of cell cycle arrest in human NCI-H1703 cells assessed as accumulation of cells at S phase at 10 uM incubated for 24 hrs by flow cytometric analysis (reference value: 28.06 %); format: functional
A549 [23] = assay: Induction of cell cycle arrest in human A549 cells assessed as downregulation of total Rb protein level at 20 uM incubated for 24 hrs by Western blotting analysis; format: functional, cell-based
A549 [24] = assay: Cytotoxicity against human A549 cells assessed as reduction in cell viability incubated for 48 hrs by MTT assay; format: functional, cell-based; details: A549, 48 h
NCI-H1703 [25] = assay: Induction of cell cycle arrest in human NCI-H1703 cells assessed as downregulation of total Rb protein level at 10 uM incubated for 24 hrs by Western blotting analysis; format: functional, cell-based
A549 [26] = assay: Induction of cell cycle arrest in human A549 cells assessed as downregulation of CDK6 protein expression incubated for 24 hrs by Western blotting analysis; format: functional, cell-based
NCI-H1703 [27] = assay: Induction of cell cycle arrest in human NCI-H1703 cells assessed as downregulation of CyclinD1 protein expression incubated for 24 hrs by Western blotting analysis; format: functional, cell-based
NCI-H1703 [28] = assay: Induction of cell cycle arrest in human NCI-H1703 cells assessed as accumulation of cells at G2/M phase at 5 uM incubated for 24 hrs by flow cytometric analysis (reference value: 29.88 %); format: functional
A549 [29] = assay: Induction of cell cycle arrest in human A549 cells assessed as accumulation of cells at S phase at 20 uM incubated for 24 hrs by flow cytometric analysis (reference value: 31.31 %); format: functional
A549 [30] = assay: Induction of cell cycle arrest in human A549 cells assessed as upregulation of p53 protein expression incubated for 24 hrs by Western blotting analysis; format: functional, cell-based

C/C=C/[C@@H]1[C@H]2C[C@@H](C)CC[C@@H]2C(C)=C[C@H]1C(=O)c1c(O)c(-c2ccc(O)cc2)c[nH]c1=O [ILICICOLIN H]
Activity (A549 [1]): Active
Activity (NCI-H1703 [2]): inactive
Activity (A549 [3]): Dose-Dependent Effect
pIC50 (Hepa 1-6): 4.71
Activity (A549 [4]): Dose-Dependent Effect
pIC50 (MDA-MB-231): 5.00
pIC50 (4T1): 4.86
pIC50 (NCI-H1703 [5]): 5.18
pIC50 (MC-38): 4.71
Activity (NCI-H1703 [6]): 50.13%
pIC50 (SNB-19): 4.84
Activity (NCI-H1703 [7]): Dose-Dependent Effect
Activity (A549 [8]): Dose-Dependent Effect
pIC50 (HCT-116): 4.97
Activity (NCI-H1703 [9]): Dose-Dependent Effect
Activity (A549 [10]): 12.93%
Activity (NCI-H1703 [11]): Active
Activity (A549 [12]): Active
Activity (NCI-H1703 [13]): Active
Activity (A549 [14]): Active
pIC50 (PC-3): < 4.30
inhibition (NCI-H1703 [15]): Active
pIC50 (MDA-MB-435): 5.20
inhibition (A549 [16]): Active
inhibition (A549 [17]): Active
Activity (A549 [18]): 72.12%
Activity (NCI-H1703 [19]): Dose-Dependent Effect
Activity (NCI-H1703 [20]): 56.04%
Activity (NCI-H1703 [21]): Dose-Dependent Effect
pIC50 (B16-F10): 4.67
Activity (NCI-H1703 [22]): 24.49%
Activity (A549 [23]): inactive
pIC50 (A549 [24]): 5.15
Activity (NCI-H1703 [25]): inactive
Activity (A549 [26]): Dose-Dependent Effect
Activity (NCI-H1703 [27]): Dose-Dependent Effect
Activity (NCI-H1703 [28]): 26.61%
Activity (A549 [29]): 14.95%
Activity (A549 [30]): Dose-Dependent Effect

Source: ChEMBL document CHEMBL5500339, “4-Hydroxy-2-pyridone derivatives with antitumor activity produced by mangrove endophytic fungus Talaromyces sp. CY-3” (Eur J Med Chem, 2024)
